How the values were obtained:
[1] = target: T1, GR (Homo sapiens, UniProt P04150); assay: Relative binding activity (RBA) at GR, dexamethasone = 100%; conditions: by Kaufmann
T1 sequence (P04150 1-777): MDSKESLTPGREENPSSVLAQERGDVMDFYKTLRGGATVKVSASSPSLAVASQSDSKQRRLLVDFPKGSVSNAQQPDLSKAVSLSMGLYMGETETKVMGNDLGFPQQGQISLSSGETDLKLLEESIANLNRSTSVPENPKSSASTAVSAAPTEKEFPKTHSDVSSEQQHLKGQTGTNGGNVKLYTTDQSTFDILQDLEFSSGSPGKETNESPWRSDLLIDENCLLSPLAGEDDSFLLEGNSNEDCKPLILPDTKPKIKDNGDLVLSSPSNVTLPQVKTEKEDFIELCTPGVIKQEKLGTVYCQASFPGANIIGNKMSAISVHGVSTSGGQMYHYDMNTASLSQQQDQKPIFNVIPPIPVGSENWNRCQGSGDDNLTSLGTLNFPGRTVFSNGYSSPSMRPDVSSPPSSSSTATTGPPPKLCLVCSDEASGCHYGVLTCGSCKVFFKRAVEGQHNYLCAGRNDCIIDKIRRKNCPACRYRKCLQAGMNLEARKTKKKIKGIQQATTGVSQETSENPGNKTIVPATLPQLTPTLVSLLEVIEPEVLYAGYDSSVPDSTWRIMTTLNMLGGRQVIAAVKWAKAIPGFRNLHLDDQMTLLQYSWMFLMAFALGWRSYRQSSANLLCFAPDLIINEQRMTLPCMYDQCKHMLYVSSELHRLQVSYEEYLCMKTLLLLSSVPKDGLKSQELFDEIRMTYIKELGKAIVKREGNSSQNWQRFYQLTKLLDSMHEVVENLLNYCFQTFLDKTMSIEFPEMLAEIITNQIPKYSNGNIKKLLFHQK

[2] = tested on: pregnant guinea pigs; assay: Abortifacient / labor inducing activity in pregnant guinea pigs; format: in vivo, guinea pig; conditions: for abortifacient activity ED50, guinea pig: s.c., treatment day 43-44 of pregnancy, autopsy day 50; for ranking of abortifacient activity: treated on days 43 and 44 of pregnancy, observed until day 50
Protocol: In the guinea pig model which allows a good prediction of the effects in humans with respect to the abortifacient activity (Elger W, Beier S., Chwalisz K, Fähnrich M, Hasan S H, Henderson D, Neef G, Rohde R (1986): Studies on the mechanism of action of progesterone antagonists. J Steroid Biochem 25: 835-845) the mesoprogestins J 867, J 912, J 956, J 1042 lead up to 100 mg/kg/day to a maximal abortion rate of 20%.
The guinea pig is considered as relevant model of human gestation and parturition (Elger W, Fähnrich M, Beier S, Quing S S, Chwalisz K (1987). Endometrial and myometrial effects of progesterone antagonists in pregnant guinea pigs. Am J Obstet Gynecol 157: 1065-1074; Elger W, Neef G, Beier S, Fähnrich M, Gründel M, Heermann J, Malmendier A, Laurent D, Puri C P, Singh M M, Hasan S H, Becker H (1992). Evaluation of antifertility activities of antigestagens in animal model. In: Puri C P and Van Look P F A (eds), Current Concepts in Fertility Regulation and Reproduction. Wiley Eastern Limited, New Delhi, pp. 303-328; Elger W, Faehnrich M, Beier S, Qing S S, Chwalisz K (1986). Mechanism of action of progesterone antagonists in pregnant guinea pigs. Contraception 6: 47-62; Elger W, Chwalisz K, Faehnrich M, Hasan S H, Laurent D, Beier S, Ottow E, Neef G, Garfield R E (1990). Studies on labor-conditioning and labor-inducing effects of antiprogesterones in animal model. In: Garfield R E (eds), Norwell, pp. 153-175.) The mechanism of abortion of antiprogestins in this species is the initiation of labor and finally the expulsion of the conceptus. Abortifacient effects in the rat during very early pregnancy reflect inhibitory effects on nidation rather than initiation of uterine contractions. Studies in the rat model lead to “overestimation” of the potential of antiprogestins to terminate pregnancy in humans. Conversely, in the guinea pig model, irrespective of the antiprogestin doses, there were high rates of ongoing pregnancies similar to the situation in humans (Elger et al., Current Concepts in Fertility Regulation and Reproduction cited above). Furthermore, in both humans and guinea pigs, there is a strong synergism between antiprogestins and prostaglandins with respect the induction of labor (see the articles cited above and Elger W, Beier S (1983). Prostaglandine and Antigestagene für den Schwangerschaftsabbruch (Prostaglandins and antigestagens for pregnancy termination). German Patent DE 3337450 12; Van Look P, Bygdeman M (1989). Antiprogestational steroids: a new dimension in human fertility regulation. Oxford reviews of reproductive medicine 11: 2-60).
Pregnant guinea pigs were treated on days 43 and 44 of pregnancy and observed until day 50 of gestation. For the effects of various treatments see table 1 and FIG. 2. It is typical for this model that expulsions occur with a delay of several days after treatment. It can be seen that Mesoprogestins have a much reduced abortifacient activity compared to RU486. […] The differences with respect to abortifacient activity seem qualitative ones. It is not possible to overcome the low abortifacient activity of a Mesoprogestin by the use of a higher dose.
FIG. 2 is graphs showing data on the assessment on cumulative rate of abortion until day 50 in guinea pigs treated on days 43 and 44 of pregnancy.

RBA (%) GR [1]	Compound	abortifacient activity ED50, guinea pig [2]	ranking of abortifacient activity [2]
42%	CCSC(=O)O/N=C/c1ccc([C@H]2C[C@@]3(C)[C@@H](CC[C@]3(COC)OC)[C@@H]3CCC4=CC(=O)CCC4=C32)cc1 [J1042, 4-[17β-Methoxy-17α-(methoxymethyl)-3-oxoestra-4,9-dien-11β-yl]benzaldehyd-(1E)-[O-(ethylthio)carbonyl]oxim]	>>100 mg/animal/day	RU486>J956>J867, J912>J1042
78%	COC[C@]1(OC)CC[C@H]2[C@@H]3CCC4=CC(=O)CCC4=C3[C@@H](c3ccc(/C=N/O)cc3)C[C@@]21C [J867, 4-[17β-Methoxy-17α-(methoxymethyl)-3-oxoestra-4,9-dien-11β-yl]benzaldehyd-(1E)-oxim]	>100 mg/animal/day	RU486>J956>J867, J912>J1042
154%	CCNC(=O)O/N=C/c1ccc([C@H]2C[C@@]3(C)[C@@H](CC[C@]3(COC)OC)[C@@H]3CCC4=CC(=O)CCC4=C32)cc1 [J956, 4-[17β-Methoxy-17α-(methoxymethyl)-3-oxoestra-4,9-dien-11β-yl]benzaldehyd-(1E)-[O-(ethylamino)carbonyl]oxim]	20 mg/animal/day	RU486>J956>J867, J912>J1042

From patent publication US8193252B1, “Mesoprogestins (progesterone receptor modulators) for the treatment and prevention of benign hormone dependent gynecological disorders” (Bayer Pharma AG, priority 1999, dated 2012)
